Experimental data as given in publication PMC3445454, “Broad and Cross-Clade CD4^+ T-Cell Responses Elicited by a DNA Vaccine Encoding Highly Conserved and Promiscuous HIV-1 M-Group Consensus Peptides” (PLoS ONE, 2012).
Ends that are not written are not given here.

These compounds were tested against T1, HLA-DP DPA1*02:01/DPB1*05:01 (Homo sapiens, UniProt P04440+P20036, A65V/A84E/F191V/F64L/G113D/G114E/K142R/L158P/M116V/M62Q/P115A/Q81R/R125K/T114A/T199I/T259P/V234M) (assay: biochemical). Conditions: not given.
T1 sequence (P20036 29-260 A42M/M62Q/Q81R/T114A/K142R/L158P/F191V/T259P): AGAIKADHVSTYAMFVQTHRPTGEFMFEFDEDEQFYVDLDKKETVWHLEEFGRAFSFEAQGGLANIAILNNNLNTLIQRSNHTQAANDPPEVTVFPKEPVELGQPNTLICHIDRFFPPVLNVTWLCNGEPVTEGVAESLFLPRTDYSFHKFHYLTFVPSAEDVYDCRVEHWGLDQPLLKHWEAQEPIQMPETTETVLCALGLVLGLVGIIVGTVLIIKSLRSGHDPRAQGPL
T1 sequence (P04440 30-258 F64L/A65V/A84E/G113D/G114E/P115A/M116V/R125K/T199I/V234M): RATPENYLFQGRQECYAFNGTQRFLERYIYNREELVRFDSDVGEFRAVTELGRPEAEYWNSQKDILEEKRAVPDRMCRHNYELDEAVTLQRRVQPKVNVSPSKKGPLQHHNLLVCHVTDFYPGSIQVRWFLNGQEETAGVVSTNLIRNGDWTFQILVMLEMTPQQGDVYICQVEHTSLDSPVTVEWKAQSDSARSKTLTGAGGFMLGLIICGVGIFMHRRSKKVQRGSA
Assay type: binding

In order of falling IC50:
1. NYPIVQNLQGQMVHQAISPR-NH2 [p17(131-132)/p24(1-18)]  2520 nM
2. CC[C@H](C)[C@H](NC(=O)[C@@H](NC(=O)[C@H](CCCCN)NC(=O)[C@@H](NC(=O)[C@@H]1CCCN1C(=O)[C@H](Cc1c[nH]c2ccccc12)NC(=O)[C@H](CCCNC(=N)N)NC(=O)CNC(=O)[C@H](C)NC(=O)[C@H](CC(C)C)NC(=O)[C@H](CCCCN)NC(=O)[C@H](CC(C)C)NC(=O)[C@@H](NC(=O)[C@H](Cc1ccccc1)NC(=O)[C@H](Cc1ccc(O)cc1)NC(=O)[C@H](C)NC(=O)[C@@H](NC(=O)[C@@H](N)CCC(=O)O)[C@@H](C)O)[C@@H](C)CC)C(C)C)C(C)C)C(N)=O [integrase(96-113)]  621 nM

Same assay, conditions: read-out: Binding capacity/IC50 (nM) DPA1*02:01 DPB1*05:01

First: CSCC[C@H](NC(=O)[C@H](CCCCN)NC(=O)[C@H](C)NC(=O)[C@H](Cc1ccc(O)cc1)NC(=O)[C@H](CCCCN)NC(=O)CNC(=O)[C@@H](NC(=O)[C@H](CCCCN)NC(=O)[C@H](CC(C)C)NC(=O)[C@H](CC(N)=O)NC(=O)[C@H](CCCCN)NC(=O)[C@H](Cc1ccccc1)NC(=O)[C@@H]1CCCN1C(=O)[C@H](CCC(=O)O)NC(=O)[C@@H](N)CCC(N)=O)[C@@H](C)O)C(N)=O [RT(343-357)]
Second: CC[C@H](C)[C@H](NC(=O)[C@H](CCCCN)NC(=O)[C@H](CCC(N)=O)NC(=O)[C@@H](NC(=O)[C@H](C)NC(=O)[C@H](CCC(=O)O)NC(=O)[C@@H](N)[C@@H](C)O)C(C)C)C(=O)N[C@@H](C)C(=O)N[C@H](C(=O)N[C@@H](CCC(=O)O)C(=O)N[C@@H](CO)C(=O)N[C@H](C(=O)N[C@H](C(=O)N[C@H](C(=O)N[C@@H](Cc1c[nH]c2ccccc12)C(=O)NCC(=O)N[C@@H](CCCCN)C(=O)N[C@H](C(=O)N1CCC[C@H]1C(=O)N[C@@H](CCCCN)C(=O)N[C@@H](Cc1ccccc1)C(=O)N[C@@H](CCCNC(=N)N)C(=O)N[C@@H](CC(C)C)C(N)=O)[C@@H](C)O)[C@@H](C)CC)C(C)C)[C@@H](C)CC)[C@@H](C)O [RT(369-391)]
The IC50 of the first is 8.7-fold higher: 1340 nM for the first, 154 nM for the second.

Going from `CC(C)C[C@H](NC(=O)[C@H](CCCCN)NC(=O)[C@@H](NC(=O)[C@H](CC(C)C)NC(=O)[C@@H]1CCCN1C(=O)[C@@H]1CCCN1C(=O)[C@@H](NC(=O)[C@H](CC(N)=O)NC(=O)[C@@H](NC(=O)[C@H](Cc1ccccc1)NC(=O)[C@H](CCC(=O)O)NC(=O)[C@H](Cc1c[nH]c2ccccc12)NC(=O)[C@@H](N)CCC(=O)O)C(C)C)[C@@H](C)O)C(C)C)C(=O)N[C@@H](Cc1c[nH]c2ccccc12)C(=O)N[C@@H](Cc1ccc(O)cc1)C(N)=O` [RT(413-427)] to `CC[C@H](C)[C@H](NC(=O)[C@@H]1CCCN1C(=O)[C@H](CCC(=O)O)NC(=O)[C@@H](N)CCCCN)C(=O)N[C@H](C(=O)NCC(=O)N[C@@H](C)C(=O)N[C@@H](CCC(=O)O)C(=O)N[C@H](C(=O)N[C@@H](Cc1ccccc1)C(=O)N[C@@H](Cc1ccc(O)cc1)C(=O)N[C@H](C(=O)N[C@@H](CC(=O)O)C(=O)NCC(=O)N[C@@H](C)C(N)=O)C(C)C)[C@@H](C)O)C(C)C` [RT(431-445)], the IC50 rises from 2820 nM to over 30000 nM. The first is the more potent here.

`CC[C@H](C)[C@H](NC(=O)CNC(=O)[C@H](CCCCN)NC(=O)[C@H](Cc1c[nH]cn1)NC(=O)[C@H](C)NC(=O)[C@@H]1CCCN1C(=O)[C@@H](NC(=O)[C@H](Cc1c[nH]c2ccccc12)NC(=O)[C@H](CO)NC(=O)[C@H](CC(C)C)NC(=O)[C@H](Cc1ccc(O)cc1)NC(=O)[C@@H](NC(=O)[C@H](CCCCN)NC(=O)[C@H](CCC(=O)O)NC(=O)[C@@H](N)CCCCN)C(C)C)C(C)C)C(=O)NCC(=O)NCC(=O)N[C@@H](CC(N)=O)C(=O)N[C@@H](CCC(=O)O)C(N)=O` [RT(528-546)] and `CC[C@H](C)[C@H](NC(=O)[C@H](Cc1ccc(O)cc1)NC(=O)CNC(=O)[C@H](CO)NC(=O)[C@H](C)NC(=O)[C@@H](NC(=O)[C@H](Cc1c[nH]cn1)NC(=O)[C@@H](NC(=O)[C@H](C)NC(=O)[C@@H](NC(=O)[C@H](CC(C)C)NC(=O)[C@@H](NC(=O)[C@@H](NC(=O)[C@H](CCCCN)NC(=O)CNC(=O)[C@@H](N)CCC(=O)O)[C@@H](C)CC)[C@@H](C)CC)C(C)C)C(C)C)C(C)C)C(=O)N[C@@H](CCC(=O)O)C(N)=O` [integrase(69-85)] are within 1.5-fold of each other in IC50: 3560 nM for the first, 2710 nM for the second.

Compared with `CC[C@H](C)[C@H](NC(=O)[C@H](CCCCN)NC(=O)[C@@H](NC(=O)[C@@H](NC(=O)[C@@H](N)CCC(N)=O)[C@@H](C)CC)[C@@H](C)O)C(=O)N[C@@H](CCC(N)=O)C(=O)N[C@@H](CC(N)=O)C(=O)N[C@@H](Cc1ccccc1)C(=O)N[C@@H](CCCNC(=N)N)C(=O)N[C@H](C(=O)N[C@@H](Cc1ccc(O)cc1)C(=O)N[C@@H](Cc1ccc(O)cc1)C(=O)N[C@@H](CCCNC(=N)N)C(=O)N[C@@H](CC(=O)O)C(=O)N[C@@H](CO)C(=O)N[C@@H](CCCNC(=N)N)C(=O)N[C@@H](CC(=O)O)C(=O)N1CCC[C@H]1C(=O)N[C@H](C(=O)N[C@@H](Cc1c[nH]c2ccccc12)C(N)=O)[C@@H](C)CC)C(C)C` [integrase(216-235)], `CC[C@H](C)[C@H](NC(=O)[C@H](C)NC(=O)[C@H](CCCCN)NC(=O)[C@H](CCCCN)NC(=O)CNC(=O)[C@H](CS)NC(=O)[C@@H](NC(=O)[C@H](CCC(=O)O)NC(=O)[C@@H](NC(=O)[C@H](CC(C)C)NC(=O)[C@@H](NC(=O)[C@H](CCC(N)=O)NC(=O)[C@H](CC(=O)O)NC(=O)[C@H](Cc1ccc(O)cc1)NC(=O)[C@H](CCC(N)=O)NC(=O)[C@H](CCCNC(=N)N)NC(=O)[C@@H](NC(=O)[C@H](CCCCN)NC(=O)[C@@H](NC(=O)[C@@H](N)Cc1ccccc1)[C@@H](C)CC)C(C)C)[C@@H](C)CC)[C@@H](C)CC)[C@@H](C)CC)C(=O)NCC(=O)N[C@H](C(=O)N[C@H](C(N)=O)C(C)C)[C@@H](C)O` [protease(53-75)] is 7-fold higher in IC50: 7.6 nM for the first, 53 nM for the second.

Compared with `CC[C@H](C)[C@H](NC(=O)[C@H](C)NC(=O)[C@@H](N)CCC(=O)O)C(=O)N[C@H](C(=O)N[C@@H](CCCNC(=N)N)C(=O)N[C@H](C(=O)N[C@@H](CC(C)C)C(=O)N[C@@H](CCC(N)=O)C(=O)N[C@@H](CCC(N)=O)C(=O)N[C@@H](CC(C)C)C(=O)N[C@@H](CC(C)C)C(=O)N[C@@H](Cc1ccccc1)C(=O)N[C@H](C(=O)N[C@@H](Cc1c[nH]cn1)C(=O)N[C@@H](Cc1ccccc1)C(=O)N[C@@H](CCCNC(=N)N)C(=O)N[C@H](C(=O)NCC(=O)N[C@@H](CS)C(=O)N[C@@H](CCC(N)=O)C(=O)N[C@@H](Cc1c[nH]cn1)C(=O)N[C@@H](CO)C(=O)N[C@@H](CCCNC(=N)N)C(N)=O)[C@@H](C)CC)[C@@H](C)CC)[C@@H](C)CC)[C@@H](C)CC` [vpr(58-80)], DEELLKAVRIIKILYQSNP-NH2 [rev(9-27)] is 8.1-fold lower in IC50: 2990 nM for the first, 370 nM for the second. The second is the more potent here.

Compared with EAVRHFPRPWLHGL-NH2 [vpr(29-42)], “IRYPLTFGWCFKLVPVDPREVEEA-NH2 [nef(133-156)]” is 1.8-fold lower in IC50: 8450 nM for the first, 4780 nM for the second.

Going from IVALIIAIVVWTIV-NH2 [vpu(13-26)] to LNKIVRMYSPVSILDI-NH2 [p24(138-153)], the IC50 falls from over 30000 nM to 220 nM.

First: SEELRSLYNTVATLYCVHQ-NH2 [p17(72-90)]
Second: VGSLQYLALTALITPKK-NH2 [vif(142-158)]
The IC50 of the first is 95-fold higher: 1900 nM for the first, 20 nM for the second. The second is the more potent here.

Going from “VVIQDNSDIKVVPRRKAKII-NH2 [integrase(249-268)]” to YAKMRSAHTNDVKQL-NH2 [RT(354-368)], the IC50 rises from 329 nM to 2190 nM (6.7-fold). The first is the more potent here.
